Source: paper PMC5898002, “Overexpression of a type III PKS gene affording novel violapyrones with enhanced anti-influenza A virus activity” (Microbial Cell Factories, 2018)

Key:
[1] = system: influenza virus A/PR8/34 (H1N1); assay: microbe, parasite or virus in culture; format: cell-based; details: MDCK cells, MOI = 1.0 (table footnote), 48 h post-infection, mean of n = 4, read-out: IC50: concentration required to inhibit influenza virus A/PR8/34 (H1N1) yield at 48 h post-infection by 50%
[2] = cytotoxicity in MDCK cell by MTT assay; details: dog, MDCK cells, CC50: concentration required to reduce MDCK cell viability by 50%, mean of n = 3
MDCK cells = details: dog, 48 h
in vitro = details: dog, CC50: concentration required to reduce MDCK cell viability by 50%

Compound	IC50 [1] [µM]	CC50 at 48 h [2] [µM]	CC50 (MDCK cells) [µM]	CC50 at 48 h (in vitro) [µM]
CCC(C)CCCCc1cc(O)c(C)c(=O)o1 (stereo not shown) [Compound 13, VLP C]	107	1620	–	–
CCCCCCCc1cc(O)c(C)c(=O)o1 [Compound 11, VLP I]	113	2200	–	–
NC(=O)c1ncn([C@@H]2O[C@H](CO)[C@@H](O)[C@H]2O)n1 [Ribavirin, reference compound]	113	1520	–	–
Cc1c(O)cc(CCCCC(C)C)oc1=O [Compound 10, Violapyrone B]	> 200	–	> 1500	> 1400
Cc1c(O)cc(CCCCCC(C)C)oc1=O [Compound 14, VLP H]	28.8	1450	–	–
CCc1c(O)cc(CCCCC(C)C)oc1=O [Compound 12, VLP P]	26.9	1570	–	–
